This is an account of results in ChEMBL document CHEMBL1201862, “PubChem BioAssay data set” (2004).

Among the test systems are ACHN; OVCAR-3; HOP-62; M14; HT-29; MDA-MB-231; OVCAR-8; 786-0; PC-3; Malme-3M; SK-OV-3; UO-31; SNB-75; NCI/ADR-RES; COLO 205; SF-539; NCI-H23; KM12; DU-145; SK-MEL-28.
Experiment in all cases: NCI-60 cell line screen, 48 h

Structures are written as SMILES.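 Step 1: Grow cells in 96-well plates. Step 2: Expose to compound for 48 hours at 5 concentrations. Step 3: Interpolate endpoints linearly; if unreached, use highest concentration. The concentration for 50% growth inhibition is given as GI50.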 The source made the active and inactive calls. Rule as the data show it: active = GI50 up to about 1.1 µM and inactive = higher.

Regarding `CC12CCC3c4ccc(O)cc4CCC3C1C/C(=N\O)C2O` (configuration not stated), the GI50 in the assay with ACHN is > 100 µM (inactive); in the assay on OVCAR-3, > 100 µM (inactive); with HOP-62, > 100 µM (inactive); in the assay on M14, > 100 µM (inactive); in the assay on HT-29 it was 77.6 µM (inactive); with MDA-MB-231 it was > 100 µM (inactive). For the same compound, the GI50 in the assay on OVCAR-8, in the assay with 786-0, with PC-3, with Malme-3M, in the assay with SK-OV-3 and in the assay with UO-31 was > 100 µM (inactive) in each case. Moreover, the GI50 in the assay on SNB-75 is 36.8 µM (inactive); in the assay with NCI/ADR-RES it was > 100 µM (inactive); with COLO 205, > 100 µM (inactive); in the assay on SF-539, 85.1 µM (inactive); in the assay with NCI-H23 it was > 100 µM (inactive); with KM12 it was 99.5 µM (inactive). For the same compound, the GI50 in the assay on DU-145 and in the assay with SK-MEL-28 was > 100 µM (inactive) in each case.
On to `CC1(C)C(=S)C(C)(C)C1=S`, for which the GI50 in the assay with ACHN, with OVCAR-3, with HOP-62, with M14, in the assay on HT-29 and in the assay on MDA-MB-231 was > 100 µM (inactive) throughout. In addition, the GI50 in the assay with 786-0, in the assay on PC-3, with Malme-3M, in the assay with SK-OV-3, in the assay with UO-31 and in the assay on SNB-75 was > 100 µM (inactive) each time. For the same compound, the GI50 with NCI/ADR-RES, in the assay on COLO 205, with SF-539, with NCI-H23, in the assay on KM12 and with DU-145 was > 100 µM (inactive) throughout. Further, the GI50 in the assay with SK-MEL-28 is > 100 µM (inactive).
With `O=c1oc2ccc([N+](=O)[O-])cc2c(Nc2ccc3c(c2)Oc2ccccc2O3)c1[N+](=O)[O-]`, the GI50 in the assay on ACHN was 32.2 µM (inactive); with OVCAR-3, 47.3 µM (inactive); with HOP-62, 38.9 µM (inactive); with M14 it was 30.1 µM (inactive); in the assay on HT-29 it was 35.2 µM (inactive); in the assay with MDA-MB-231, 19.1 µM (inactive). The GI50 is 26.8 µM (inactive) in the assay on OVCAR-8; 23.4 µM (inactive) with 786-0; 25 µM (inactive) in the assay on PC-3; 69.8 µM (inactive) with Malme-3M; 41.4 µM (inactive) in the assay on SK-OV-3; 69.2 µM (inactive) in the assay with UO-31. Besides, the GI50 in the assay with SNB-75 is 40.9 µM (inactive); in the assay with NCI/ADR-RES, 29.9 µM (inactive); in the assay on COLO 205 it was 21.7 µM (inactive); with SF-539, 25.4 µM (inactive); in the assay on NCI-H23, 25.1 µM (inactive); in the assay on KM12, 31.9 µM (inactive). In addition, the GI50 with DU-145 is 59.7 µM (inactive); in the assay on SK-MEL-28, 39.9 µM (inactive).
Turning to `CCCCCC(C(O)C#N)C(O)(C(F)(F)F)C(F)(F)F` (configuration not stated), the GI50 in the assay on ACHN, with OVCAR-3, in the assay with HOP-62, with M14, in the assay with HT-29 and with MDA-MB-231 was > 10 µM (inactive) each time. Moreover, the GI50 in the assay with OVCAR-8, in the assay on 786-0, in the assay with PC-3, with Malme-3M, in the assay on SK-OV-3 and with SNB-75 was > 10 µM (inactive) each time. Moreover, the GI50 in the assay with NCI/ADR-RES, with COLO 205, in the assay with SF-539, in the assay on NCI-H23, with KM12 and in the assay with DU-145 was > 10 µM (inactive) throughout. For the same compound, in the assay on SK-MEL-28, the GI50 is > 10 µM (inactive).
As for `c1cc2cc3c4c5c(cc6ccc7cc8cc9c%10c8c8c7c6c5c8c5c%10c(c1C9N1CCOCCOCCOCCOCCOCC1)c2c45)C3` (configuration not stated), the GI50 in the assay with ACHN, in the assay with OVCAR-3, in the assay on HOP-62, with M14, with HT-29 and with MDA-MB-231 was > 100 µM (inactive) throughout. Also, the GI50 in the assay with OVCAR-8, in the assay with 786-0, in the assay with PC-3, in the assay with Malme-3M, in the assay on SK-OV-3 and in the assay on UO-31 was > 100 µM (inactive) each time. Also, the GI50 in the assay with SNB-75, in the assay with NCI/ADR-RES, in the assay with COLO 205, in the assay with SF-539, in the assay on NCI-H23 and in the assay with KM12 was > 100 µM (inactive) throughout. In addition, the GI50 in the assay on DU-145 and in the assay on SK-MEL-28 was > 100 µM (inactive) throughout.
For the compound `O=C(O)CCc1nc(-c2ccccc2)c(-c2ccccc2)o1` [OXAPROZIN], the GI50 in the assay on ACHN, with OVCAR-3, in the assay on HOP-62, in the assay on M14, with HT-29 and in the assay on MDA-MB-231 was > 100 µM (inactive) in each case. The GI50 with OVCAR-8, with 786-0, in the assay on PC-3, in the assay on Malme-3M, with SK-OV-3 and with SNB-75 was > 100 µM (inactive) in each case. Also, the GI50 in the assay with NCI/ADR-RES, in the assay with COLO 205, in the assay on SF-539, in the assay on NCI-H23, in the assay with KM12 and in the assay on DU-145 was > 100 µM (inactive) each time. For the same compound, the GI50 with SK-MEL-28 is > 100 µM (inactive).
Turning to `CC[C@H](C)[C@H]1NC(=O)[C@@H](NC(=O)[C@@H](CC(C)C)N(C)C(=O)C2CCCN2C(=O)[C@H](C)O)[C@@H](C)OC(=O)[C@@H]2Cc3ccccc3CN2C(=O)[C@@H]2CCCN2C(=O)[C@H](CC(C)C)NC(=O)[C@@H](C)C(=O)[C@H](C(C)C)OC(=O)C[C@@H]1O` (some centres not stated), the GI50 in the assay on ACHN was 1.55 µM (inactive); in the assay on OVCAR-3, 0.286 µM (active); in the assay on HOP-62, 0.385 µM (active); with M14 it was 1.17 µM (inactive); with HT-29, 0.258 µM (active); in the assay on MDA-MB-231, 1.04 µM (active). The GI50 with OVCAR-8 was 1.1 µM (active); in the assay with 786-0, 0.368 µM (active); in the assay with PC-3, 0.317 µM (active); in the assay with Malme-3M it was 0.34 µM (active); in the assay with SK-OV-3 it was 0.547 µM (active); with SNB-75 it was 0.121 µM (active). Besides, the GI50 in the assay with NCI/ADR-RES was > 100 µM (inactive); in the assay on COLO 205, 0.269 µM (active); in the assay on SF-539, 0.267 µM (active); with KM12, 0.104 µM (active); in the assay with DU-145, 0.341 µM (active); with SK-MEL-28, 0.231 µM (active).
Turning to `Cc1ccc(C(C2C(=O)N(C)C(=O)N(C)C2=O)C(F)(F)C(=O)N(C)C)cc1` (configuration not stated), the GI50 in the assay on ACHN, in the assay on OVCAR-3, in the assay with HOP-62, in the assay on M14, in the assay with MDA-MB-231 and in the assay with OVCAR-8 was > 100 µM (inactive) throughout. Further, the GI50 with 786-0, in the assay on PC-3, with Malme-3M, in the assay with SK-OV-3, in the assay on UO-31 and in the assay with SNB-75 was > 100 µM (inactive) throughout. For the same compound, the GI50 in the assay on NCI/ADR-RES is > 100 µM (inactive); in the assay on COLO 205 it was > 100 µM (inactive); in the assay with SF-539 it was 45.3 µM (inactive); in the assay with NCI-H23, > 100 µM (inactive); in the assay with KM12, > 100 µM (inactive); in the assay on DU-145, > 100 µM (inactive). In addition, the GI50 in the assay with SK-MEL-28 is > 100 µM (inactive).
Consider `NC1CC(=O)c2c1sc(Cl)c2Cl` (configuration not stated), for which the GI50 in the assay on ACHN, in the assay with OVCAR-3, with HOP-62, in the assay on M14, in the assay with HT-29 and in the assay with MDA-MB-231 was > 100 µM (inactive) in each case. Further, the GI50 in the assay on OVCAR-8, in the assay with 786-0, in the assay with PC-3, in the assay on Malme-3M, with SK-OV-3 and in the assay on UO-31 was > 100 µM (inactive) each time. Also, the GI50 with SNB-75, in the assay with NCI/ADR-RES, with COLO 205, in the assay with SF-539, with KM12 and in the assay with DU-145 was > 100 µM (inactive) each time. Further, the GI50 with SK-MEL-28 is > 100 µM (inactive).
For the compound `CN(C)c1ccc(/C=C/C(=O)CC(=O)/C=C/c2ccc(N(C)C)cc2)cc1`, the GI50 in the assay with ACHN was > 100 µM (inactive); in the assay with OVCAR-3, 65.3 µM (inactive); in the assay on HOP-62 it was > 100 µM (inactive); in the assay on M14, > 100 µM (inactive); in the assay on HT-29, > 100 µM (inactive); in the assay with MDA-MB-231, 85.1 µM (inactive). For the same compound, the GI50 with OVCAR-8, in the assay on 786-0, in the assay with PC-3, in the assay with Malme-3M, with SK-OV-3 and with UO-31 was > 100 µM (inactive) throughout. Further, the GI50 in the assay on SNB-75, with NCI/ADR-RES, with COLO 205, with SF-539, in the assay on KM12 and with DU-145 was > 100 µM (inactive) throughout. Also, the GI50 in the assay on SK-MEL-28 is > 100 µM (inactive).
